Experimental findings from paper PMC9265050, “Inhibition of RNA Binding in SND1 Increases the Levels of miR-1-3p and Sensitizes Cancer Cells to Navitoclax” (Cancers, 2022) are described below.

One data set deals with T1, SN3-SN4-TSN (340-888) (Homo sapiens, UniProt Q7KZF4).
T1 construct: gene SND1; SN3-SN4-TSN domain fragment, residues 340-888; N-terminal GST tag cut with TEV protease; E. coli Rosetta 2 (DE3)
T1 sequence (Q7KZF4 340-888): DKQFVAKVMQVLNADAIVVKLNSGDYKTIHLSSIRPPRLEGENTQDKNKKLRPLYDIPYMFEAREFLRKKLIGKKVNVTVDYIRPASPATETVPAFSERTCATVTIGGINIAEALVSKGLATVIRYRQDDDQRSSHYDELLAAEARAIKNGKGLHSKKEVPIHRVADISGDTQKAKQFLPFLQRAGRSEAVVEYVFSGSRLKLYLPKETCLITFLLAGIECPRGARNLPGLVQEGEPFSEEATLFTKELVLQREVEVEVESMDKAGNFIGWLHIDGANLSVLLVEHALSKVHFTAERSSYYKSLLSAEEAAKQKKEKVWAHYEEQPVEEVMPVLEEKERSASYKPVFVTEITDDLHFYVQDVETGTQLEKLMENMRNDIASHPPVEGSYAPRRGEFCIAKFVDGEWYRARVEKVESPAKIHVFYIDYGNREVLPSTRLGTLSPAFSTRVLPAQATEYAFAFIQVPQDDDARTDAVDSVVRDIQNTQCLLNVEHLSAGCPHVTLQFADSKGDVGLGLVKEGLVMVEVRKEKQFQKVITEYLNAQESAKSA
In words: isothermal titration calorimetry, one-site model. The class given is binding. The text has this: isothermal titration calorimetry, one-site model on SN3-SN4-TSN (340-888)
(In general: ITC needs no label: the signal is the heat of the interaction.)

A further data set addresses T2, SN1-SN2 (16-339) (Homo sapiens, UniProt Q7KZF4).
T2 construct: gene SND1; SN1-SN2 domain fragment, residues 16-339; N-terminal GST tag cut with TEV protease; E. coli Rosetta 2 (DE3)
T2 sequence (Q7KZF4 16-339): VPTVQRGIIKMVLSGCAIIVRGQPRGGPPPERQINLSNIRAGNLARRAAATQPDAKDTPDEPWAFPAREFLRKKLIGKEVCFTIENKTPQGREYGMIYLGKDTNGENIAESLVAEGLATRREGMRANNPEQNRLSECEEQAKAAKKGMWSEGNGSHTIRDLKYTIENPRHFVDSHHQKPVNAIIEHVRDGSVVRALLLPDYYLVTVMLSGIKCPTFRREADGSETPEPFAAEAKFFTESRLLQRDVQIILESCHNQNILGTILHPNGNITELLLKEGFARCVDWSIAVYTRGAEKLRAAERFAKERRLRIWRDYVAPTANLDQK
Put plainly: isothermal titration calorimetry, one-site model. The class given is binding. From the text:
isothermal titration calorimetry, one-site model on SN1-SN2 (16-339)

In the next data set the target is SND1 full-length (UniProt Q7KZF4 1-910). Put plainly: fluorescence polarization; high affinity, Kd only in figure; inhibited by suramin, not by navitoclax; FP: 20 mM HEPES pH 7.5, 100 mM NaCl, 3 nM labelled RNA, 25 C; EMSA: same buffer with 5 mM EGTA or 5 mM CaCl2, room temperature 1 or 4 h, 20% PAGE 1xTBE 4 C. Conditions: protein: recombinant; tags: GST tag removed by TEV; label: 5' 6-FAM; single strand. (Fluorescence polarisation rises when a labelled molecule tumbles more slowly, as on binding a larger partner.)
Sequence of SND1 full-length (Q7KZF4 whole entry): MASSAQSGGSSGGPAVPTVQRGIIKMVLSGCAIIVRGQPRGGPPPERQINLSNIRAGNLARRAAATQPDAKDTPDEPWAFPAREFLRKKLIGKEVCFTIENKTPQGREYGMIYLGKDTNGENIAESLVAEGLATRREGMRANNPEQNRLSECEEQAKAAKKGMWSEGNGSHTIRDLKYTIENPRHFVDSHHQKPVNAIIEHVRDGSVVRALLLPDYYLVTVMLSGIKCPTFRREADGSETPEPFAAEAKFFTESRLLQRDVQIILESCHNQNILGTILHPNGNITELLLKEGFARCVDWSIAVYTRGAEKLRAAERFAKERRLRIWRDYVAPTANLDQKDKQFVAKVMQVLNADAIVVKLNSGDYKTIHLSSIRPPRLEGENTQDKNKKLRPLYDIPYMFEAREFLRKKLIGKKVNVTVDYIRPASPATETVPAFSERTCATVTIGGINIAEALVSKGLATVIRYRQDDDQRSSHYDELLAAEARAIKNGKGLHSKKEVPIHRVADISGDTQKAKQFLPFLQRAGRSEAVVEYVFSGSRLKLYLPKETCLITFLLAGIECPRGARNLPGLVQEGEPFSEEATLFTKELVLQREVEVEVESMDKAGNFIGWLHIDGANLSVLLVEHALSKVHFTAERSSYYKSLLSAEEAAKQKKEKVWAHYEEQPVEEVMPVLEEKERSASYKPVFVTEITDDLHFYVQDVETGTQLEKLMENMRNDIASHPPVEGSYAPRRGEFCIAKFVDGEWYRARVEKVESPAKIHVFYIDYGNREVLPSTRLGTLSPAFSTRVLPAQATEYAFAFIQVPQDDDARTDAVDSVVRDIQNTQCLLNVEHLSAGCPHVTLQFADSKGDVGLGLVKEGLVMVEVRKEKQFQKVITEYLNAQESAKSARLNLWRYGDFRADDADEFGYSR

A word on the Kd: it is the equilibrium constant for the complex coming apart. A higher Kd goes with lower affinity. As for `Cc1ccc(C(=O)Nc2ccc(S(=O)(=O)O)c3cc(S(=O)(=O)O)cc(S(=O)(=O)O)c23)cc1NC(=O)c1cccc(NC(=O)Nc2cccc(C(=O)Nc3cc(C(=O)Nc4ccc(S(=O)(=O)O)c5cc(S(=O)(=O)O)cc(S(=O)(=O)O)c45)ccc3C)c2)c1` [Suramin], the Kd was 5.59 µM at SN3-SN4-TSN (340-888) and 12.1 µM on SN1-SN2 (16-339).
On to UGGAAUGUAAAGAAGUAUGUAU (ssRNA) [miR-1-3p FP tracer], for which the binding result in the data set with SND1 full-length is on record as “binds”.
